Literature values in patent publication US20160021884A1, “STABLE SOLUTIONS OF 1,2-BENZISOTHIAZOLIN-3-ONE” (TITAN CHEMICALS LIMITED, priority 2014, published 2016).

Settings: 5° C., 4 weeks

- Stability of purely aqueous solution: stable at 5 °C for 4 weeks
SMILES: O=c1[n-]sc2ccccc12.[Li+] [lithium salt of BIT]
